Laboratory results reported in patent publication US9695155B2, “Herbicidal substituted pyrimidinyloxy benzene compounds” (E. I. DU PONT DE NEMOURS AND COMPANY, priority 2013, dated 2017).

How the values were obtained:
giant foxtail [1] = experiment: Test C postemergence; format: in vivo, Setaria faberii; details: Setaria faberi, post-emergence
Outline: (§1)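 Seeds are planted in blended loam soil and sand and treated preemergence, while seedlings in a peat moss/vermiculite medium receive postemergence sprays at 2 to 18 cm height. All plants stay in the greenhouse for 13 to 15 days before visual comparison with controls on a 0–100 scale.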

corn [2] = experiment: Test C postemergence; format: in vivo, Zea mays; details: Zea mays, post-emergence
Outline: as §1

barnyardgrass = experiment: Test C postemergence; format: in vivo, Echinochloa crus-galli; details: Echinochloa crus-galli, post-emergence
Outline: as §1

wheat, winter = experiment: Test C postemergence; format: in vivo, Triticum aestivum; details: Triticum aestivum, post-emergence
Outline: as §1

lambsquarters = experiment: Test C preemergence; format: in vivo, Chenopodium album; details: Chenopodium album, pre-emergence
Outline: as §1

corn [3] = experiment: Test C preemergence; format: in vivo, Zea mays; details: Zea mays, pre-emergence, preemergence, scale 0 (no effect) to 100 (complete control), read-out: Corn plant response rating
Outline: as §1

blackgrass = experiment: Test C postemergence; format: in vivo, Alopecurus myosuroides; details: Alopecurus myosuroides, post-emergence
Outline: as §1

yellow nutsedge = experiment: Test C postemergence; format: in vivo, Cyperus esculentus; details: Cyperus, post-emergence
Outline: as §1

large (Lg) crabgrass = experiment: Test C preemergence; format: in vivo, Digitaria sanguinalis; details: Digitaria sanguinalis, pre-emergence
Outline: as §1

corn [4] = experiment: Test A postemergence; format: in vivo, Zea mays; details: Zea mays, post-emergence, 240 h
Outline: (§2)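 Visual 0–100 rating (100 = complete control) taken about 10 d post-treatment relative to untreated checks. Preemergence: directed soil spray on sown loam/sand pots. Postemergence: seedlings 2–10 cm, 1–2 leaf. Non-phytotoxic solvent formulation with surfactant.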

kochia = experiment: Test C postemergence; format: in vivo, Kochia scoparia; details: Bassia scoparia, post-emergence
Outline: as §1

giant foxtail [5] = experiment: Test A postemergence; format: in vivo, Setaria faberii; details: Setaria faberi, post-emergence, 240 h
Outline: as §2

pigweed = experiment: Test C preemergence; format: in vivo, Amaranthus retroflexus; details: Amaranthus retroflexus, pre-emergence
Outline: as §1

## N#Cc1cccc(Oc2ncc(Br)cn2)c1-n1cc(C(F)(F)F)cn1 [Compound 59, 3-[(5-bromo-2-pyrimidinyl)oxy]-2-[4-(trifluoromethyl)-1H-pyrazol-1-yl]benzonitrile]
Giant foxtail [1]; 125 g ai/ha, postemergence, read-out: Plant response rating (0 to 100), Foxtail, Giant
  pest or weed control at 125 g/ha: 45%
Giant foxtail [1]; 250 g ai/ha, postemergence, read-out: Plant response rating (0 to 100), Foxtail, Giant
  pest or weed control at 250 g/ha: 90%
Giant foxtail [1]; Postemergence, 31 g ai/ha, scale 0 to 100 (0 no effect, 100 complete control), 13 to 15 days, read-out: Plant response rating, Foxtail, Giant
  pest or weed control at 31 g/ha: 10%
Giant foxtail [1]; Postemergence, 62 g ai/ha, scale 0 to 100 (0 no effect, 100 complete control), read-out: Plant response rating, Foxtail, Giant
  pest or weed control at 62 g/ha: 45%
Corn [2]; 125 g ai/ha, postemergence, read-out: Plant response rating (0 to 100), Corn
  plant injury at 125 g/ha: 15%
Corn [2]; 250 g ai/ha, postemergence, read-out: Plant response rating (0 to 100), Corn
  plant injury at 250 g/ha: 20%
Corn [2]; Postemergence, 31 g ai/ha, scale 0 to 100 (0 no effect, 100 complete control), 13 to 15 days
  Corn plant response rating (crop injury, 0 = no effect, 100 = complete kill) at 31 g/ha: 10%
Corn [2]; Postemergence, 62 g ai/ha, scale 0 to 100 (0 no effect, 100 complete control)
  Corn plant response rating (crop injury, 0 = no effect, 100 = complete kill) at 62 g/ha: 15%
barnyardgrass; 125 g ai/ha, postemergence, read-out: Plant response rating (0 to 100), Barnyardgrass
  pest or weed control at 125 g/ha: 10%
barnyardgrass; 250 g ai/ha, postemergence, read-out: Plant response rating (0 to 100), Barnyardgrass
  pest or weed control at 250 g/ha: 25%
barnyardgrass; Postemergence, 31 g ai/ha, scale 0 to 100 (0 no effect, 100 complete control), 13 to 15 days, read-out: Plant response rating, Barnyardgrass
  pest or weed control at 31 g/ha: 5%
barnyardgrass; Postemergence, 62 g ai/ha, scale 0 to 100 (0 no effect, 100 complete control), read-out: Plant response rating, Barnyardgrass
  pest or weed control at 62 g/ha: 5%
wheat, winter; 125 g ai/ha, postemergence, read-out: Plant response rating (0 to 100), Wheat
  plant injury at 125 g/ha: 20%
wheat, winter; 250 g ai/ha, postemergence, read-out: Plant response rating (0 to 100), Wheat
  plant injury at 250 g/ha: 20%
wheat, winter; Postemergence, 31 g ai/ha, scale 0 to 100 (0 no effect, 100 complete control), 13 to 15 days, read-out: Plant response rating, Wheat
  plant injury at 31 g/ha: 5%
wheat, winter; Postemergence, 62 g ai/ha, scale 0 to 100 (0 no effect, 100 complete control), read-out: Plant response rating, Wheat
  plant injury at 62 g/ha: 5%
lambsquarters; 62 g ai/ha, preemergence, scale 0 (no effect) to 100 (complete control), read-out: Lambsquarters plant response rating
  pest or weed control at 62 g/ha: 100%
lambsquarters; 125 g ai/ha, preemergence, scale 0 (no effect) to 100 (complete control), read-out: Lambsquarters plant response rating
  pest or weed control at 125 g/ha: 100%
lambsquarters; 250 g ai/ha, preemergence, scale 0 (no effect) to 100 (complete control), read-out: Lambsquarters plant response rating
  pest or weed control at 250 g/ha: 100%
lambsquarters; Preemergence, 31 g ai/ha, scale 0 to 100, 0 no effect, 100 complete control, read-out: Plant response rating, Lambsquarters
  pest or weed control at 31 g/ha: 100%
Corn [3]; 62 g ai/ha
  plant injury at 62 g/ha: 55%
Corn [3]; 125 g ai/ha
  plant injury at 125 g/ha: 75%
Corn [3]; 250 g ai/ha
  plant injury at 250 g/ha: 90%
blackgrass; 125 g ai/ha, postemergence, read-out: Plant response rating (0 to 100), Blackgrass
  pest or weed control at 125 g/ha: 25%
blackgrass; 250 g ai/ha, postemergence, read-out: Plant response rating (0 to 100), Blackgrass
  pest or weed control at 250 g/ha: 40%
blackgrass; Postemergence, 31 g ai/ha, scale 0 to 100 (0 no effect, 100 complete control), 13 to 15 days, read-out: Plant response rating, Blackgrass
  pest or weed control at 31 g/ha: 5%
blackgrass; Postemergence, 62 g ai/ha, scale 0 to 100 (0 no effect, 100 complete control), read-out: Plant response rating, Blackgrass
  pest or weed control at 62 g/ha: 10%
Yellow nutsedge; 125 g ai/ha, postemergence, read-out: Plant response rating (0 to 100), Nutsedge, Yellow
  pest or weed control at 125 g/ha: 5%
Yellow nutsedge; 250 g ai/ha, postemergence, read-out: Plant response rating (0 to 100), Nutsedge, Yellow
  pest or weed control at 250 g/ha: 10%
Yellow nutsedge; Postemergence, 31 g ai/ha, scale 0 to 100 (0 no effect, 100 complete control), 13 to 15 days, read-out: Plant response rating, Nutsedge, Yellow
  pest or weed control at 31 g/ha: 0%
Yellow nutsedge; Postemergence, 62 g ai/ha, scale 0 to 100 (0 no effect, 100 complete control), read-out: Plant response rating, Nutsedge, Yellow
  pest or weed control at 62 g/ha: 5%
Large (Lg) crabgrass; 62 g ai/ha, preemergence, scale 0 (no effect) to 100 (complete control), read-out: Crabgrass, Large plant response rating
  pest or weed control at 62 g/ha: 100%
Large (Lg) crabgrass; 125 g ai/ha, preemergence, scale 0 (no effect) to 100 (complete control), read-out: Crabgrass, Large plant response rating
  pest or weed control at 125 g/ha: 100%
Large (Lg) crabgrass; 250 g ai/ha, preemergence, scale 0 (no effect) to 100 (complete control), read-out: Crabgrass, Large plant response rating
  pest or weed control at 250 g/ha: 100%
Large (Lg) crabgrass; Preemergence, 31 g ai/ha, scale 0 to 100, 0 no effect, 100 complete control, read-out: Plant response rating, Crabgrass, Large
  pest or weed control at 31 g/ha: 100%
Corn [4]; 125 g ai/ha, 0 to 100 scale where 0 is no effect and 100 is complete control
  Corn plant response rating (crop injury, 0 = no effect, 100 = complete kill) at 125 g/ha: 60%
Corn [4]; 500 g ai/ha, 0 to 100 scale, 0 no effect, 100 complete control, read-out: Plant response rating Corn
  plant injury at 500 g/ha: 100%
kochia; 125 g ai/ha, postemergence, read-out: Plant response rating (0 to 100), Kochia
  pest or weed control at 125 g/ha: 100%
kochia; 250 g ai/ha, postemergence, read-out: Plant response rating (0 to 100), Kochia
  pest or weed control at 250 g/ha: 100%
kochia; Postemergence, 31 g ai/ha, scale 0 to 100 (0 no effect, 100 complete control), 13 to 15 days, read-out: Plant response rating, Kochia
  pest or weed control at 31 g/ha: 95%
kochia; Postemergence, 62 g ai/ha, scale 0 to 100 (0 no effect, 100 complete control), read-out: Plant response rating, Kochia
  pest or weed control at 62 g/ha: 100%
Giant foxtail [5]; 125 g ai/ha, 0 to 100 scale where 0 is no effect and 100 is complete control, read-out: Plant response rating, Foxtail, Giant
  pest or weed control at 125 g/ha: 100%
Giant foxtail [5]; 500 g ai/ha, 0 to 100 scale, 0 no effect, 100 complete control, read-out: Plant response rating Foxtail, Giant
  pest or weed control at 500 g/ha: 100%
pigweed; 62 g ai/ha, preemergence, scale 0 (no effect) to 100 (complete control), read-out: Pigweed plant response rating
  pest or weed control at 62 g/ha: 100%
pigweed; 125 g ai/ha, preemergence, scale 0 (no effect) to 100 (complete control), read-out: Pigweed plant response rating
  pest or weed control at 125 g/ha: 100%
pigweed; 250 g ai/ha, preemergence, scale 0 (no effect) to 100 (complete control), read-out: Pigweed plant response rating
  pest or weed control at 250 g/ha: 100%
pigweed; Preemergence, 31 g ai/ha, scale 0 to 100, 0 no effect, 100 complete control, read-out: Plant response rating, Pigweed
  pest or weed control at 31 g/ha: 100%
